The results in this text go back to US20240165108A1, “NOVEL USE” (GlaxoSmithKline Intellectual Property Development Limited, priority 2022, published 2024).

The test system of data set [1] is JAK-STAT signaling pathway. Kind of data set: STAT3/STAT5 phosphorylation in dermal papilla cells treated with oncostatin M. Type of data set: cell-based, human. The procedure:
(§1) The downstream effects of recombinant oncostatin M was assessed by evaluating signalling pathways (such as the JAK-STAT pathway previously associated with oncostatin M induced senescence in mouse [Wang 2019, PMID 30930146]) and markers associated with senescence to link specific mediators in the macrophage secretome (like oncostatin M) to disease relevant mechanisms. Dermal papilla cells in culture were treated with recombinant oncostatin M protein from BioLegend. Tofacitinib was received from MedChemExpress as a ready-made 10 mM solution and used at the indicated concentration.
Protein quantification: protein was extracted after lysis with RIPA buffer and quantified by BCA using methods known in the art. Protein was loaded onto a gel and run with NuPage MES SDS running buffer and transferred onto nitrocellulose membrane using the iBlot2 according to manufacturer's instructions and procedures known in the art. The following primary antibodies were used to assess expression of the relative proteins described: Human anti-Total STAT5 antibody, Isotype (Rabbit polyclonal IgG) from Abcam, Human anti-Phospho STAT5 antibody, Isotype (Rabbit polyclonal IgG) from Abcam, Anti-Human total STAT3 (D3Z2G) from Cell Signaling Technologies, Anti-Human pSTAT3 (Y705) (D3A7) from Cell Signaling Technologies and the control antibody, β-Actin (8H10D10) Mouse IgG2b mAb from Cell Signaling Technologies. […]

For data set [2], the target named is T1, GPR91 (Homo sapiens, UniProt Q9BXA5).
T1 sequence (Q9BXA5 1-334): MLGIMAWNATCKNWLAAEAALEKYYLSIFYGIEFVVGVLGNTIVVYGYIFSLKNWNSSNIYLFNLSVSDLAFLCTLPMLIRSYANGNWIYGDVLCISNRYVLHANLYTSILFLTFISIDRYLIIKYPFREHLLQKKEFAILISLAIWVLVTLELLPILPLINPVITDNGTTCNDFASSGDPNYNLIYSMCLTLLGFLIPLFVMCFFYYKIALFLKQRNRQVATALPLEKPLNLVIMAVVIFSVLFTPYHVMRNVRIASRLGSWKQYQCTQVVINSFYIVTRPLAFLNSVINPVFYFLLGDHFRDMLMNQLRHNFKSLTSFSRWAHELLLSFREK
Briefly: Succinate-stimulated secretion of PGD2 and cytokines/chemokines in LUVA cells. Conditions: for IC50: compound 1 hr prior to succinate stimulation. Set-up: host or cells: LUVA. In kind it is cell-based. The procedure: After the incubation, the cell suspension was centrifuged, and the supernatant was collected for downstream readouts of secreted factors including Prostaglandin D2 (PGD2) by ELISA (Cayman Chemical PGD2 EIA kit), and cytokines/chemokines TNFa, MIP1a and Eotaxin-3 by MSD (Mesoscale V-Plex Plus proinflammatory panel 1, Plus Chemokine Panel 1).
A GPR91 knockout in LUVA cells (received from Kerafast Inc) was generated using CRISPR technology with a single guide following protocols known in the art. The guide RNA sequence used was […] (SEQ ID NO: 4). The guide RNA cut location was chromosome 3: 151,880,674.

In data set [3] the target is T1, GPR91. Kind of data set: Calcium flux in HEK293. In kind it is cell-based. The conditions noted are these: read-out: Test compound pIC50, Calcium flux in HEK293 (converted). The source says: (§2) GPR91 inhibition can be measured according to the art. For example, GPR91 inhibition may be measured by testing a compound in a G-protein functional assay such as Calcium flux, IP1 accumulation and GTPyS. GPR91 inhibition may be measured by testing a compound in phenotypic assays which measures a cytokine response that is relevant to the indication.
Background: Calcium flux is commonly read through the fluorescence of an indicator in the cells.

Data set [4] relates to human hair follicles. Kind of data set: Microscopic hair cycle staging in ex vivo hair follicle organ culture. In kind it is cell-based. An excerpt: Compounds, at the concentrations indicated, are present throughout the duration of the hair follicle culture at 0.1% DMSO.
Data set [5] concerns the target T1, GPR91. Kind of data set: GTPyS G-protein functional assay. In kind it is biochemical. The arrangement: host or cells: LUVA. Conditions: read-out: Test compound pIC50, GTPyS (converted).
Source text: as §2

The target in data set [6] is T1, GPR91. Kind of data set: IP1 accumulation. The conditions noted are these: read-out: Test compound pIC50, IP1 (converted). Type of data set: cell-based. Set-up: host or cells: LUVA.
Source text: as §2

Data set [7] deals with dermal papilla cells. Kind of data set: FGF18 and BMP6 gene expression in dermal papilla cells (RT-qPCR). Type of data set: cell-based, human. The conditions noted are these: oncostatin M 10 ng/ml and 100 ng/ml. As for the experimental part:
as §1
Gene expression: mRNA was extracted as previously described in example 1. […] The following Taqman probes were used to identify target specific mRNA transcripts: FGF18 (Assay ID: Hs00826077_m1), and BMP6 (Assay ID: Hs01099594_m1).

For data set [8], the system named is dermal papilla cells. Briefly: Beta galactosidase activity (senescence) in dermal papilla. Type of data set: cell-based, human. As for the experimental part:
as §1
Beta Galactosidase Activity: A B-Galactosidase Activity Assay Kit (Fluorescence, Plate-Based) from Cell Signalling Technology #23833 was used to assess cellular senescence. The instructions were followed according to the manufacturer's instructions.

In data set [9] the target is T1, GPR91. The conditions noted are these: TREM2 expressing M2 macrophages, succinate for 48 hr. As for the experimental part:
Oncostatin M levels were determined by ELISA (Abcam ab215543) according to the manufacturer's instructions.
Oncostatin M levels were determined by ELISA according to the manufacturer's instructions. […] Supernatants were collected and Oncostatin M levels were measured.

The test system of data set [10] is human iPSC derived M2 macrophages. Conditions: succinate present during macrophage polarization.
Method: IPSC precursor cells were differentiated into macrophages using differentiation media known in the art followed by polarisation into M1 and M2 macrophage phenotypes using LPS+IFNg and IL4+IL13 stimulation, respectively.
The TREM2 primer probe set used to determine expression levels was purchased from ThermoFisher (Hs01003898_m1). Relative expression (AU: Arbitrary units) was calculated using 2^−dCT, where dCT is calculated as CT (TREM2)−CT(Housekeeper Gene). In these experiments, the housekeeper gene used was RPLP0 (ribosomal phosphoprotein PO) (Primer Probe purchased from ThermoFisher Assay ID: He00420895_gH).
Data set [11] relates to human hair follicles. Kind of data set: Dermal papilla area and melanin clumping, Fontana-Masson stained ex vivo hair follicles. Type of data set: cell-based. The conditions noted are these: healthy hair follicles. As for the experimental part: Microscopic hair cycle staging: Hair cycle staging is performed at the end of the culture and can be determined according to several established parameters as described previously. Hair follicles are microscopically evaluated for the hair cycle staging using Masson-Fontana histochemistry and Ki-67/TUNEL immunostaining as previously described. […] Melanin clumps are indicated on the images by the orange arrows, and are counted in the Masson-fontana stained section at the end of the culture in a defined region of interest starting at the Auber's line and including the precortical hair matrix as described previously.

Data set [12] concerns dermal papilla cells. The procedure: iPSC were differentiated and polarized to an M2 like macrophage phenotype as previously described. […] Media was collected from the treated iPSC after 48 hours of incubation, which is referred to as conditioned media. The dermal papilla from both male and female donors were plated at 5K cells/well onto a collagen coated E-Plate and analysed using the XCELLIGENCE® platform according to the manufacturer's instructions. The cells are analysed in the machine for 24 hours to determine adherence to the plate and establishment of baseline measurements. After 24 hours, the media is aspirated, and macrophage conditioned media is added to the cells for up to 117 hours and the effects of the GPR91 dependent iPSC secretome on dermal papilla proliferation are analyzed.

Data set [13] concerns hair matrix keratinocytes. Conditions: hair follicles from healthy donors. The procedure: Hair follicle organ cultures ex vivo: Full length hair follicles were micro dissected from scalp skin or FUEs as above.
Quantitative evaluation of hair matrix keratinocyte proliferation and apoptosis is performed in Ki-67/TUNEL stained sections of the hair follicle. The germinative hair matrix keratinocyte proliferation is calculated as the percentage of KI-67 positive nuclei. Intra-follicular apoptosis is analyzed using TUNEL staining (TdT-mediated dUTP-biotin nick end labelling) as described previously.

The subject of data set [14] is human hair follicles. Briefly: RNA sequencing of ex vivo cultured hair follicles. The conditions noted are these: healthy hair follicles after succinate. In kind it is cell-based. The procedure:
RNA extraction, sequencing and analysis were performed as follows; RNA from n=2-3 hair follicles per group was extracted using […]® PicoPure® RNA Isolation Kit (ThermoFisher) including a Dnase digestions step using the Rnase-Free Dnase Set from Qiagen and stored at −80 degrees Celsius until analysed. RNA concentration, purity and integrity were assessed before sequencing. Sequencing was performed on a NovaSeq 6000 using 2×100 bp read length with an output of approximately 30 M clusters (6 Gb per sample). Demultiplexing of the sequencing reads was performed with Illumina bcl2fastq (2.20).
Briefly, DESeq2 first creates a pseudo-reference sample (row-wise geometric mean) and calculates the ratio of each sample to this reference. Then, the normalization factor for each sample (size factor) is calculated using the median value of all ratios for a given sample. Normalized count values are created by dividing each raw count value in a given sample by that sample's normalization factor. Finally, DESeq2 calculates p values and adjusted p values for genes of two groups by allowing the shrinkage of the log 2 fold changes when the information for a gene is low (low counts or high dispersion values). For manual calculation of fold change (FC) between two groups, the ratio of the normalized read counts was used. And FC is considered relevant or significant if it is greater of equal to 2 (upregulation) or smaller that or equal to 0.5 (downregulation).

Where [15] appears, read: LUVA cells, succinate 3 hours, MSD.

On to `C[C@@H]1CCN(C(=O)CC#N)C[C@@H]1N(C)c1ncnc2[nH]ccc12` [Tofacitinib, reference compound], for which the “oncostatin M induced phosphorylation of STAT3 and STAT5” value in [1] (JAK inhibitor co-treatment) is reported as “can be blocked”.
Consider `O=C(CCCc1ccc2cccnc2n1)NCc1cc(-c2ccc(F)c(C(F)(F)F)c2)no1` [Compound 2, N-[{3-(3-trifluoromethyl-4-fluorophenyl)isoxazol-5-yl}methyl]-4-([1,8]naphthyridin-2-yl)butyramide], for which the IC50 was 1000 nM in [2] (LUVA cells, read-out: Test compound pIC50, MIP-1a (converted)); 63.1 nM in data set [2] (LUVA cells, read-out: Test compound pIC50, PGD2 (converted)); 25.1 nM in data set [3]; 1260 nM in data set [5]; 7940 nM in [6]. Further, the “percentage of hair follicles in the anagen phase” value in data set [4] (donors with healthy hair follicles) is “increases the percentage of hair follicles in the anagen phase”.
On to “oncostatin M: recombinant oncostatin M protein from BioLegend; cytokine shown to induce hair follicle quiescence in mice”, for which, in data set [1] (recombinant oncostatin M applied to dermal papilla), the “JAK-STAT signaling, phosphorylation of STAT3 and STAT5” value was “activates the JAK-STAT signaling pathway”. Also, in data set [7], the “expression of BMP6” value is “downregulates expression of BMP6” and the “expression of FGF18” value is given as “increases the expression of FGF18”. For the same compound, in [8], the “senescence, β-galactosidase activity” value is reported as “induces senescence”.
For `O=C([O-])CCC(=O)[O-].[Na+].[Na+]` [Succinate, Sodium succinate], in data set [2] (GPR91 knockout LUVA cell line, 3 hr and 72 hour), the “TNFa and MIP-1a response to succinate in GPR91 knockout” value is given as “lack of response”. Further, the “TNFa and MIP-1a response to succinate” value in data set [2] (LUVA cells, 3 hr and 72 hour post succinate addition) is “robust TNFa and MIP-1a response”. In [2] (setting [15]), the “Succinate control pEC50, MIP-1a” value is given as 3.4 and the “Succinate control pEC50, TNF-α” value is recorded as 4.2. Besides, the “Succinate control pEC50, PGD2” value in [2] (LUVA cells, succinate 3 hours, PGD2 ELISA) was 3.5. In addition, in [9], the “oncostatin M secretion” value is recorded as “secrete higher levels of oncostatin M”. In data set [10], the TREM2 expression entry is listed as “higher levels of expression of TREM2”. For the same compound, in data set [11], the dermal papilla area result is reported as “decreased size of the dermal papilla area”. The “dermal papilla proliferation with conditioned media of succinate treated macrophages” value in [12] (3 mM succinate, male and female donors) is “inhibit dermal papilla proliferation”. Besides, the “dermal papilla proliferation, succinate by itself” value in data set [12] (direct treatment of dermal papilla cells) is “does not induce any changes in the proliferation of dermal papilla cells”. For the same compound, the “hair matrix keratinocyte proliferation” value in data set [13] is listed as “reduces hair matrix keratinocyte proliferation”. Moreover, the apoptosis entry in data set [13] (TUNEL) is listed as “increases apoptosis”. For the same compound, the “percentage of hair follicles in the catagen phase” value in data set [4] (GPR91 activation by succinate) is reported as “increases the percentage of hair follicles in the catagen phase”. Besides, the “toxicity to hair follicles” value in [4] (at high concentrations) is “highly toxic to hair follicles”. In addition, in data set [14], the “genes related to immune activation (cytokine and chemokine response)” value was “increase in genes related to immune activation”; the “genes that regulate hair follicle pathways and keratins” value is on record as “significant downregulation in genes that regulate hair follicle pathways”.
